Measurements as given in paper PMC6222718, “Ethylenediamine Derived Carboxamides of Betulinic and Ursolic Acid as Potential Cytotoxic Agents” (Molecules : A Journal of Synthetic Chemistry and Natural …, 2018).
“Also recorded” adds a separate entry of the source.

Experiments:
[1] = test system: 8505C (thyroid carcinoma); assay: SRB cytotoxicity assay, 8505C; type: cell-based, human; conditions: for EC50: Homo sapiens, SRB assay, 96 h of treatment, 8505C; for Selectivity index (SI) 8505C: SI = EC50 (NIH 3T3)/EC50 (8505C)
Experimental: (§1) The cytotoxicity of ursolic and betulinic carboxamides 3–30 was determined in sulforhodamine B (SRB) assays.
(§2) The cell lines used were human cancer cell lines: 518A2 (melanoma), A2780 (ovarian carcinoma), HT29 (colon adenocarcinoma), MCF-7 (breast adenocarcinoma), 8505C (thyroid carcinoma) and non-malignant mouse fibroblasts NIH 3T3. Cultures were maintained as monolayers in RPMI 1640 medium with L-glutamine (Capricorn Scientific GmbH, Ebsdorfergrund, Germany) supplemented with 10% heat inactivated fetal bovineserum (Sigma-Aldrich Chemie GmbH, Steinheim, Germany) and penicillin/streptomycin (Capricorn Scientific GmbH, Ebsdorfergrund, Germany) at 37 °C in a humidified atmosphere with 5% CO2.
(§3) The cytotoxicity of the compounds was evaluated using the sulforhodamine-B (Kiton-Red S, ABCR) micro culture colorimetric assay. Cells were seeded into 96-well plates on day 0 at appropriate cell densities to prevent confluence of the cells during the period of experiment. After 24 h, the cells were treated with 6 different concentrations (1, 3, 7, 12, 20 and 30 µM) minimum. The final concentration of DMSO/DMF never exceeded 0.5%, which was non-toxic to the cells. After a 96 h treatment, the supernatant medium from the 96-well plates was discarded, the cells were fixed with 10% trichloroacetic acid (TCA) and allowed to rest at 4 °C. After 24 h fixation, the cells were washed in a strip washer and dyed with SRB solution (100 µL, 0.4% in 1% acetic acid) for about 20 min. After dying, the plates were washed four times with 1% acetic acid to remove the excess of the dye and allowed to air-dry overnight. Tris base solution (200 µL, 10 mM) was added to each well and absorbance was measured at λ = 570 nm using a 96-well plate reader (Tecan Spectra, Crailsheim, Germany). The EC50 values were averaged from three independent experiments performed each in triplicate calculated from semi logarithmic dose response curves applying a non-linear 4P Hills-slope equation (GraphPad Prism5; variables top and bottom were set to 100 and 0, respectively).

[2] = test system: MCF-7 (breast adenocarcinoma); assay: SRB cytotoxicity assay, MCF-7; type: cell-based, human; conditions: for EC50: Homo sapiens, MCF7, SRB assay, 96 h of treatment, MCF-7; for Selectivity index (SI) MCF-7: SI = EC50 (NIH 3T3)/EC50 (MCF-7)
Experimental: as §1, §2, §3

[3] = test system: HT29 (colon adenocarcinoma); assay: SRB cytotoxicity assay, HT29; type: cell-based, human; conditions: for EC50: Homo sapiens, HT-29, SRB assay, 96 h of treatment, HT29; for Selectivity index (SI) HT29: SI = EC50 (NIH 3T3)/EC50 (HT29)
Experimental: as §1, §2, §3

[4] = test system: A2780 (ovarian carcinoma); assay: SRB cytotoxicity assay, A2780; type: cell-based, human; conditions: for factor by which activity is reduced compared to doxorubicin hydrochloride (DRC): A2780 tumor cells, EC50 versus DRC; for EC50: Homo sapiens, SRB assay, 96 h of treatment, A2780; for Selectivity index (SI) A2780: SI = EC50 (NIH 3T3)/EC50 (A2780)
Experimental: as §1, §2, §3

[5] = test system: MCF-7 cells; assay: AO/PI dye exclusion test, MCF-7; type: cell-based, human; conditions: 24 h
Experimental: (§4) Extended biological investigations were performed for compounds 25 and 26 using dye exclusion acridine orange (AO)/propidium iodide (PI) assays by treating MCF-7 or A2780 tumor cells with 25 and 26, respectively for 24 h (Figure 3). […] For both compounds, membrane blebbing of some cells could also be observed. These observations can be regarded as indications of apoptosis.
(§5) Morphological characteristics of cell death were analyzed employing an AO/PI assay using human cancer cell lines A2780 and MCF-7. Approximately 8 × 10^5 cells were seeded in cell culture flasks (25 cm^2), and the cells were allowed to grow for 24 h. After removing the used medium, fresh medium was reloaded (or a blank new medium was used as a control). After 24 h, the content of the flask was collected and centrifuged (1200 rpm, 4 °C), and the pellet was gently suspended in phosphate-buffered saline (PBS (w/w), 1 mL) and centrifuged again. The PBS was removed, and the pellet gently suspended in PBS (50 µL) again. The analysis of the cells was performed using a fluorescence microscope after having mixed the cell suspension (10 µL) with a solution of AO/PI (1 µg/mL, 10 µL).

[6] = test system: A2780 cells; assay: AO/PI dye exclusion test, A2780; type: cell-based, human; conditions: 1 µM, 24 h
Experimental: as §4, §5

[7] = test system: several human tumor cell lines; assay: SRB cytotoxicity assay, cell line panel (summary statements); type: cell-based; conditions: for EC50: Homo sapiens, summary over the cell lines tested; for SI factors (over the cancerous cell lines): SI = EC50 (NIH 3T3)/EC50 (tumor cell line), summary
Experimental: as §1, §2, §3

[8] = test system: 518A2 (melanoma); assay: SRB cytotoxicity assay, 518A2; type: cell-based, human; conditions: for EC50: Homo sapiens, SRB assay, 96 h of treatment, 518A2; for Selectivity index (SI) 518A2: SI = EC50 (NIH 3T3)/EC50 (518A2)
Experimental: as §1, §2, §3

[9] = test system: non-malignant mouse fibroblasts NIH 3T3; assay: SRB cytotoxicity assay, NIH 3T3; type: cell-based; conditions: NIH3T3, 96 h of treatment
Experimental: as §1, §2, §3

Row | Structure (SMILES) | EC50 [1] | Selectivity index (SI) 8505C [1] | EC50 [2] | Selectivity index (SI) MCF-7 [2] | EC50 [3] | Selectivity index (SI) HT29 [3] | factor by which activity is reduced compared to doxorubicin hydrochloride (DRC) [4] | EC50 [4] | Selectivity index (SI) A2780 [4] | AO/PI fluorescence microscopy, cell morphology ([5]; 1 µM) | AO/PI fluorescence microscopy, cell morphology [6] | EC50 [7] | SI factors (over the cancerous cell lines) [7] | EC50 [8] | Selectivity index (SI) 518A2 [8] | EC50 [9] | AO/PI fluorescence microscopy, cell morphology ([5]; 0.75 µM) | melting point
1 | C=C(C)C1CC[C@]2(C(=O)NCCN(C)C)CC[C@]3(C)C(CCC4[C@@]5(C)CC[C@H](O)C(C)(C)C5CC[C@]43C)C12 (stereo partly drawn) [Compound 25, (3β)-N-[2-(Dimethylamino)ethyl]-3-hydroxy-lup-20(29)-en-28-amide] | 400 ± 40 nM | 0.75 | 300 ± 70 nM | 1.00 | 300 ± 50 nM | 1.00 | 20 | 200 ± 10 nM | 1.50 | both apoptotic (membrane blebbing, marked by white arrows in Figure 3) and necrotic cells (red staining) | both green colored cells as well as late-stage apoptotic cells | < 1000 nM | ~1 | 300 ± 160 nM | 1.00 | 300 ± 90 nM | – | –
2 | C=C(C)C1CC[C@]2(C(=O)NCCN3CCCC3)CC[C@]3(C)C(CCC4[C@@]5(C)CC[C@H](O)C(C)(C)C5CC[C@]43C)C12 (stereo partly drawn) [Compound 26, (3β)-N-(2-Pyrrolidin-1-ylethyl)-3-hydroxy-lup-20(29)-en-28-amide] | 500 ± 60 nM | 0.80 | 200 ± 50 nM | 2.00 | 400 ± 20 nM | 1.00 | 30 | 300 ± 100 nM | 1.33 | – | both green colored cells as well as late-stage apoptotic cells | < 1000 nM | ~1 | 400 ± 60 nM | 1.00 | 400 ± 20 nM | intact cell membranes (green staining); also recorded: protrusions in the plasma membrane (blebbing) of some cells | –
3 | C=C(C)C1CC[C@]2(C(=O)NCCN3CCNCC3)CC[C@]3(C)C(CCC4[C@@]5(C)CC[C@H](O)C(C)(C)C5CC[C@]43C)C12 (stereo partly drawn) [Compound 28, (3β)-N-(2-Piperazin-1-ylethyl)-3-hydroxy-lup-20(29)-en-28-amide] | 850 ± 170 nM | 0.94 | 300 ± 20 nM | 2.67 | 800 ± 180 nM | 1.00 | – | 800 ± 40 nM | 1.00 | – | – | – | – | 900 ± 210 nM | 0.89 | 800 ± 220 nM | – | 146 to 148 °C (dec.)
4 | C=C(C)C1CC[C@]2(C(=O)NCCCCN)CC[C@]3(C)C(CCC4[C@@]5(C)CC[C@H](O)C(C)(C)C5CC[C@]43C)C12 (stereo partly drawn) [Compound 29, (3β)-N-(4-Aminobutyl)-3-hydroxy-lup-20(29)-en-28-amide] | 800 ± 260 nM | 0.63 | 600 ± 100 nM | 0.83 | 400 ± 100 nM | 1.25 | – | 600 ± 100 nM | 0.83 | – | – | – | – | 400 ± 60 nM | 1.25 | 500 ± 100 nM | – | 130 to 133 °C
5 | C=C(C)C1CC[C@]2(C(=O)NCCOCCN)CC[C@]3(C)C(CCC4[C@@]5(C)CC[C@H](O)C(C)(C)C5CC[C@]43C)C12 (stereo partly drawn) [Compound 30, (3β)-N-[2-(2-Aminoethoxy)ethyl]-3-hydroxy-lup-20(29)-en-28-amide] | 200 ± 10 nM | 2.00 | 400 ± 200 nM | 1.00 | 500 ± 70 nM | 0.80 | – | 500 ± 40 nM | 0.80 | – | – | – | – | 500 ± 40 nM | 0.80 | 400 ± 70 nM | – | 182 to 183 °C
